Bounds are passed on as bounds.

The values below come from ChEMBL document CHEMBL1145579, “Development of potent and selective small-molecule human Urotensin-II antagonists” (Bioorg Med Chem Lett, 2008).

One data set has as its target Cytochrome P450 3A4 (Homo sapiens, UniProt P08684).
A further data set deals with T1, Urotensin-2 receptor (Homo sapiens, UniProt Q9UKP6).
T1 sequence (Q9UKP6 whole entry): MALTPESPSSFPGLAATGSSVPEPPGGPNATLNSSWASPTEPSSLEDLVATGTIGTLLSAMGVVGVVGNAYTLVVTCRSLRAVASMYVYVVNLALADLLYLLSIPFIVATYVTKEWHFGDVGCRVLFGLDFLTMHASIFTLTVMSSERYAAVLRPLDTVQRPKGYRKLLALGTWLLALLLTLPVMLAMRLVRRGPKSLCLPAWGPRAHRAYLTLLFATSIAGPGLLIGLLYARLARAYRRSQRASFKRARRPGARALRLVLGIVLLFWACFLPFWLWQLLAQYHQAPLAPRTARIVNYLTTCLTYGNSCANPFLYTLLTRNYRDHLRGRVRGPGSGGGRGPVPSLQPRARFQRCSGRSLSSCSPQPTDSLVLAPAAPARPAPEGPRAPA
The data set can be described thus: Displacement of [125I]hU-2 from human recombinant Urotensin 2 receptor expressed in HEK293 cells. The class given is cell-based.

Data set [1] can be described thus: Binding affinity at batrachotoxinin sensitive Sodium channel in rat brain. The class given is tissue-based.
Another data set deals with Cytochrome P450 2D6 (Homo sapiens, UniProt P10635). Kind of data set: Inhibition of CYP2D6. The class given is ADME.
For data set [2], the target named is Kappa-type opioid receptor (Homo sapiens, UniProt P41145). Kind of data set: Agonist activity at kappa opioid receptor. The class given is functional.
The nature of data set [3]: Cmax in rat at 2 mg/kg, iv and 4 mg/kg, po. The class given is ADME, organism-based. The note with it: in vivo.
Data set [4] in a line: Clearance in rat at 2 mg/kg, iv and 4 mg/kg, po. The note with it: in vivo. The class given is ADME, organism-based.
Data set [5] has as its target T2, Urotensin-2 receptor (Rattus norvegicus) (UniProt P49684).
T2 sequence (whole entry): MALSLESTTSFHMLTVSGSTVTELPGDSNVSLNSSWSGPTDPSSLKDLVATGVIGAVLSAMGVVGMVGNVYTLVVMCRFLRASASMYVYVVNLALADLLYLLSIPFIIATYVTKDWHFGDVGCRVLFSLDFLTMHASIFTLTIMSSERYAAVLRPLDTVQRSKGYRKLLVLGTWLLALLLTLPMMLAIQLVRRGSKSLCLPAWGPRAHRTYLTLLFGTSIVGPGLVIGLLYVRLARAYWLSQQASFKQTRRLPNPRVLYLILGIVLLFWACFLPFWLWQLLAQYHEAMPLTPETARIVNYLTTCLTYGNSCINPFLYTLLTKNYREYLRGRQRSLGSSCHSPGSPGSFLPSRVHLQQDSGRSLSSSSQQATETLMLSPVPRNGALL
Kind of data set: Binding affinity at Urotensin 2 receptor in rat aorta.

Data set [6] is described as follows: Half life in rat at 2 mg/kg, iv and 4 mg/kg, po. The class given is ADME, organism-based. The conditions noted are these: in vivo.
A short description of data set [7]: Oral bioavailability in rat at 4 mg/kg, po. The class given is ADME, organism-based. The conditions noted are these: in vivo.
Data set [8] is described as follows: Volume of distribution at steady state in rat at 2 mg/kg, iv and 4 mg/kg, po. The class given is ADME, organism-based. The note with it: in vivo, read-out: Vdss.

Chain of Kappa-type opioid receptor (P41145 whole entry): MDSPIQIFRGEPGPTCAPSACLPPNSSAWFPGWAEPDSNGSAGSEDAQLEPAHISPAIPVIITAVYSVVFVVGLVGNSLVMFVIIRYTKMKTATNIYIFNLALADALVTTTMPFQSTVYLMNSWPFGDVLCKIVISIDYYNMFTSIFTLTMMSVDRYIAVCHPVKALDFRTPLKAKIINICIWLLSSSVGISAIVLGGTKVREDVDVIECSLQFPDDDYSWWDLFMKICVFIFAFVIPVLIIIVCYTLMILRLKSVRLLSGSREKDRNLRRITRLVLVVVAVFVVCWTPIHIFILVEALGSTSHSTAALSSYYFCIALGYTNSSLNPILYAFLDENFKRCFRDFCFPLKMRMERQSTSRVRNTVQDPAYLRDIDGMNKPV
Chain of Cytochrome P450 3A4 (P08684 whole entry): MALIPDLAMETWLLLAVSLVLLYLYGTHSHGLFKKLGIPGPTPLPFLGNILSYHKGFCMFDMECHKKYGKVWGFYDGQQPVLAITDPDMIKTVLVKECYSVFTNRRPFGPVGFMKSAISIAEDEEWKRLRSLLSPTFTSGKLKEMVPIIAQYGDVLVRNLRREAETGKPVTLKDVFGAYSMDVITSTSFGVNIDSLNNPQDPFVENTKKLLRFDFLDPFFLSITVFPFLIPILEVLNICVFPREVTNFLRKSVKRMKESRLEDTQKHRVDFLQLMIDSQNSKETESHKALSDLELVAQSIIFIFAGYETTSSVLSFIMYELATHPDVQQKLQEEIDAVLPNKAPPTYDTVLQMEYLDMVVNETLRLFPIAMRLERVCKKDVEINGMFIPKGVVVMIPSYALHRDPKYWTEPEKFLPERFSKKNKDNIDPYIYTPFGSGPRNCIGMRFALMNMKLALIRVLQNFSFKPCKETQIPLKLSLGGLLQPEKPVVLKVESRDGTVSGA
Chain of Cytochrome P450 2D6 (P10635 whole entry): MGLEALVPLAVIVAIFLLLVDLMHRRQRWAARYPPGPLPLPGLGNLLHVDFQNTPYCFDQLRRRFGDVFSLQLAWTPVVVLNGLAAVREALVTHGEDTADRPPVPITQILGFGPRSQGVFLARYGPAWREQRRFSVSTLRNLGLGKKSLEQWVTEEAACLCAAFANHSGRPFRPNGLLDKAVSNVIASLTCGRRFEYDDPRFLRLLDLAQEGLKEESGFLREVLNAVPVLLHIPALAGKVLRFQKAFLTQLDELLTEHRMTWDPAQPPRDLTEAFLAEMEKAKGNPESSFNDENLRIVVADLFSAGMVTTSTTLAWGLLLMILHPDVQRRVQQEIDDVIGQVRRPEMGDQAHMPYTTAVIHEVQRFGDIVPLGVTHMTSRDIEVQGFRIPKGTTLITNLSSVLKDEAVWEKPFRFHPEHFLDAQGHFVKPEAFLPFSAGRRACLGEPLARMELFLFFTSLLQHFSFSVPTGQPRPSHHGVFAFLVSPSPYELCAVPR

Consider `O=C(Cn1c(=O)sc2ccc(Cl)cc21)N1CCCC(c2ccccc2)C1CN1CCCC1` (racemic), for which the half-maximal inhibitory concentration (IC50) (in general, the point on the concentration scale where inhibition reaches its midpoint) against Cytochrome P450 3A4 turned out to be 1 µM; against Cytochrome P450 2D6, 1.7 µM. Moreover, the values for the inhibition constant (Ki) (at Urotensin-2 receptor; in data set [1]) were 0.0012 µM and 0.33 µM, respectively. Also, the EC50 (as a rule, the concentration that produces a half-maximal response) in [2] amounted to 1.3 µM.

With `Cc1cc2c(cc1C)N(CC(=O)N1CCCC(c3ccccc3)C1CN1CCCC1)C(=O)CO2` (racemic), the IC50 was 3.9 µM against Cytochrome P450 3A4 and 5.1 µM against Cytochrome P450 2D6. The Ki (in general, the equilibrium dissociation constant of an inhibitor or competing ligand from its target) stood at 0.0004 µM on Urotensin-2 receptor and 0.39 µM in [1]. In [2], this compound returned an EC50 of 5 µM.

Regarding `N#CCN(CC(=O)N1CCCC(c2ccccc2)C1CN1CCCC1)c1ccc(Cl)c(Cl)c1` (racemic), the IC50 on Cytochrome P450 3A4 is 1.1 µM; on Cytochrome P450 2D6, 2.3 µM. Also, the inhibitory constant (Ki) at Urotensin-2 receptor is 0.002 µM; in data set [1], 1.6 µM. The peak concentration (Cmax) (as a rule, the maximum level reached in the sampled fluid or tissue) in [3] was found to be 120 ng/mL. This compound showed a clearance in data set [4] of 100 mL/min/kg. Moreover, the Kb in data set [5] is 0.005 µM. For the same compound, the half-life (commonly the time needed for the level to fall by half in the phase considered) in data set [6] is 3.2 h. The bioavailability (usually dose-corrected exposure relative to a reference, in per cent) in data set [7] came out at 12%. Further, the Vd in data set [8] stood at 27 L/kg. The same compound registered a concentration for a half-maximal effect (EC50) in [2] of 0.79 µM.

Consider `Cc1cc2ncc(=O)n(CC(=O)N3CCCC(c4ccccc4)C3CN3CCOCC3)c2cc1C` (racemic), for which the IC50 worked out at 2.7 µM against Cytochrome P450 3A4 and 6.7 µM at Cytochrome P450 2D6. Also, the Ki was determined as 0.005 µM at Urotensin-2 receptor and 6.9 µM in [1]. This compound showed a 50% effective concentration (EC50) in data set [2] of 30 µM.

With `CN(CC(=O)N1CCCC(c2ccccc2)C1CN1CCOCC1)c1ccc(Cl)c(Cl)c1` (racemic), the inhibition constant (Ki) at Urotensin-2 receptor stood at 0.079 µM; in [1], 1.6 µM. On Cytochrome P450 2D6, this compound returned an IC50 of 2.3 µM. The compound further displayed an EC50 in data set [2] of 1 µM.

For the compound `COCCN(CC(=O)N1CCCC(c2ccccc2)C1CN1CCCC1)c1ccc(Cl)c(Cl)c1` (stereo not given), the Ki came out at 0.008 µM on Urotensin-2 receptor and 0.96 µM in data set [1]. Further, in data set [3], the peak level (Cmax) was 95 ng/mL. This compound came in with a clearance in data set [4] of 120 mL/min/kg. In data set [6], this compound showed a half-life of 2.8 h. The compound also yielded a bioavailability in data set [7] of 30%. Moreover, inhibition at Cytochrome P450 2D6 was half-maximal at 0.82 µM (IC50). For the same compound, the Vd in data set [8] is 27 L/kg. The concentration for a half-maximal effect (EC50) in data set [2] amounted to 1 µM.

As for `O=C(Cn1c(=O)cnc2cc(Cl)c(Cl)cc21)N1CCCC(c2ccccc2)C1CN1CCCC1` (racemic), the half-maximal inhibitory concentration (IC50) against Cytochrome P450 3A4 is 1.2 µM; on Cytochrome P450 2D6, 2.9 µM. The inhibition constant (Ki) at Urotensin-2 receptor was 0.0006 µM; in [1], 0.93 µM. The EC50 in data set [2] amounted to 3.2 µM.

Turning to `Cc1cc2ncc(=O)n(CC(=O)N3CCCC(c4ccccc4)C3CN3CCCC3)c2cc1C` (racemic), the half-maximal inhibitory concentration (IC50) at Cytochrome P450 3A4 came to 6.8 µM; against Cytochrome P450 2D6 it was 8.4 µM. For the same compound, the inhibition constant (Ki) at Urotensin-2 receptor worked out at 0.001 µM; in data set [1], 1.4 µM. The compound further had a concentration giving a half-maximal response (EC50) in data set [2] of 6.3 µM.

As to `CN(CC(=O)N1CCCC(c2ccccc2)C1CN1CCCC1)c1ccc(Cl)c(Cl)c1` (racemic), the half-inhibitory concentration (IC50) was found to be 1.4 µM at Cytochrome P450 3A4 and 0.75 µM on Cytochrome P450 2D6. The inhibitory constant (Ki) is 0.016 µM on Urotensin-2 receptor and 2.5 µM in [1]. Besides, the highest concentration (Cmax) in data set [3] is 100 ng/mL. In [4], the clearance came to 97 mL/min/kg. In data set [5], this compound had a Kb of 0.028 µM. Further, the half-life in [6] is 3.8 h. The same compound showed a bioavailability in [7] of 0%. The Vd in data set [8] amounted to 23 L/kg. This compound also gave an EC50 in data set [2] of 3.2 µM.

Consider `O=C1COc2cc(Cl)c(Cl)cc2N1CC(=O)N1CCCC(c2ccccc2)C1CN1CCOCC1` (racemic), for which the IC50 against Cytochrome P450 3A4 was found to be 0.73 µM; on Cytochrome P450 2D6 it was 4.8 µM. In addition, the Ki on Urotensin-2 receptor is 0.002 µM; in data set [1], 1.3 µM. The compound also gave a half-maximal effective concentration (EC50) in data set [2] of 7.9 µM.

In the case of `O=C(Cn1c(=O)sc2ccc(Cl)cc21)N1CCCC(c2ccccc2)C1CN1CCOCC1` (racemic), the 50% inhibitory concentration (IC50) came out at 0.68 µM against Cytochrome P450 3A4 and 8 µM against Cytochrome P450 2D6. The inhibition constant (Ki) on Urotensin-2 receptor is 0.006 µM; in data set [1], 3.5 µM. For the same compound, in data set [3], the Cmax was 160 ng/mL. This compound registered a clearance in [4] of 130 mL/min/kg. Also, in data set [6], the half-life was 5 h. For the same compound, in data set [7], the bioavailability is below 1%. In addition, the Vd in [8] stood at 26 L/kg. Moreover, in data set [2], the 50% effective concentration (EC50) was found to be 7.9 µM.

As for `O=C(Cn1c(=O)oc2ccc(Cl)cc21)N1CCCC(c2ccccc2)C1CN1CCOCC1` (racemic), the results for the IC50 on Cytochrome P450 3A4 and against Cytochrome P450 2D6 were 1.3 µM and 3.5 µM, respectively. Also, the Ki on Urotensin-2 receptor stood at 0.04 µM; in data set [1], 0.73 µM. A half-maximal effect in [2] (EC50) was put at 1.3 µM.

As for `N#CCN(CC(=O)N1CCCC(c2ccccc2)C1CN1CCOCC1)c1ccc(Cl)c(Cl)c1` (racemic), the values for the IC50 on Cytochrome P450 3A4 and against Cytochrome P450 2D6 were 0.49 µM and 3.7 µM, respectively. For the same compound, the Ki was determined as 0.006 µM on Urotensin-2 receptor and 4 µM in [1]. Besides, the maximum concentration (Cmax) in [3] was found to be 370 ng/mL. The compound also came in with a clearance in data set [4] of 60 mL/min/kg. The compound further gave a half-life in data set [6] of 2.6 h. The compound also displayed a bioavailability in data set [7] of 7%. Also, the Vd in data set [8] amounted to 8 L/kg. Besides, the EC50 in data set [2] amounted to 5 µM.

On to `COCCN(CC(=O)N1CCCC(c2ccccc2)C1CN1CCOCC1)c1ccc(Cl)c(Cl)c1` (racemic), for which the half-maximal inhibitory concentration (IC50) at Cytochrome P450 3A4 stood at 0.48 µM; against Cytochrome P450 2D6, 3.2 µM. Also, the inhibitory constant (Ki) at Urotensin-2 receptor worked out at 0.13 µM; in [1], 3.2 µM. In addition, the midpoint of the response in [2], the EC50, lay at 10 µM.

In the case of `O=C(Cn1c(=O)cnc2cc(Cl)c(Cl)cc21)N1CCCC(c2ccccc2)C1CN1CCOCC1` (racemic), the half-inhibitory concentration (IC50) is 1 µM on Cytochrome P450 3A4 and 21 µM against Cytochrome P450 2D6. For the same compound, the Ki was found to be 0.003 µM at Urotensin-2 receptor and 18 µM in data set [1]. Moreover, the EC50 in data set [2] stood at 15 µM.

Regarding `O=C(Cn1c(=O)oc2ccc(Cl)cc21)N1CCCC(c2ccccc2)C1CN1CCCC1` (racemic), the IC50 at Cytochrome P450 3A4 came to 2.1 µM; at Cytochrome P450 2D6, 2.2 µM. The Ki on Urotensin-2 receptor is 0.005 µM; in data set [1], 0.15 µM. In [2], the midpoint of the response, the EC50, lay at 5 µM.

On to `O=C1COc2cc(Cl)c(Cl)cc2N1CC(=O)N1CCCC(c2ccccc2)C1CN1CCCC1` (racemic), for which the half-inhibitory concentration (IC50) at Cytochrome P450 3A4 is 1.8 µM; on Cytochrome P450 2D6, 1.6 µM. Besides, the Ki on Urotensin-2 receptor is 0.0004 µM; in [1] it was 0.68 µM. Besides, in data set [2], the response was half-maximal at 0.5 µM (EC50).
